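48-hour exposure; five concentrations; linearly interpolated endpoints. TGI: concentration producing complete growth inhibition.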
How the values were obtained:
Assay in all cases: NCI-60 cell line screen, 48 h
786-0 renal = tested on: 786-0 renal
A498 renal = tested on: A498 renal
A549 NSCLC = tested on: A549 NSCLC
ACHN renal = tested on: ACHN renal
CAKI-1 renal = tested on: CAKI-1 renal
CCRF-CEM leukemia = tested on: CCRF-CEM leukemia
COLO 205 colon = tested on: COLO 205 colon
DLD-1 colon = tested on: DLD-1 colon
DMS 114 small cell lung = tested on: DMS 114 small cell lung
EKVX NSCLC = tested on: EKVX NSCLC
HCT-116 colon = tested on: HCT-116 colon
HCT-15 colon = tested on: HCT-15 colon
HL-60(TB) leukemia = tested on: HL-60(TB) leukemia
HOP-18 NSCLC = tested on: HOP-18 NSCLC
HOP-62 NSCLC = tested on: HOP-62 NSCLC
HOP-92 NSCLC = tested on: HOP-92 NSCLC
HT29 colon = tested on: HT29 colon
IGROV1 ovarian = tested on: IGROV1 ovarian
KM12 colon = tested on: KM12 colon
KM20L2 colon = tested on: KM20L2 colon
LOX IMVI melanoma = tested on: LOX IMVI melanoma
LXFL 529 NSCLC = tested on: LXFL 529 NSCLC
M14 melanoma = tested on: M14 melanoma
M19-MEL melanoma = tested on: M19-MEL melanoma
MALME-3M melanoma = tested on: MALME-3M melanoma
MOLT-4 leukemia = tested on: MOLT-4 leukemia
NCI-H226 lung = tested on: NCI-H226 lung
NCI-H23 lung = tested on: NCI-H23 lung
NCI-H460 lung = tested on: NCI-H460 lung
NCI-H522 lung = tested on: NCI-H522 lung
OVCAR-3 ovarian = tested on: OVCAR-3 ovarian
OVCAR-4 ovarian = tested on: OVCAR-4 ovarian
OVCAR-5 ovarian = tested on: OVCAR-5 ovarian
OVCAR-8 ovarian = tested on: OVCAR-8 ovarian
RPMI-8226 leukemia = tested on: RPMI-8226 leukemia
RXF 393 renal = tested on: RXF 393 renal
RXF-631 renal = tested on: RXF-631 renal
SF-268 CNS = tested on: SF-268 CNS
SF-295 CNS = tested on: SF-295 CNS
SF-539 CNS = tested on: SF-539 CNS
SK-MEL-28 melanoma = tested on: SK-MEL-28 melanoma
SK-MEL-5 melanoma = tested on: SK-MEL-5 melanoma
SK-OV-3 ovarian = tested on: SK-OV-3 ovarian
SN12C renal = tested on: SN12C renal
SNB-19 CNS = tested on: SNB-19 CNS
SNB-75 CNS = tested on: SNB-75 CNS
SNB-78 CNS = tested on: SNB-78 CNS
SR leukemia = tested on: SR leukemia
SW-620 colon = tested on: SW-620 colon
TK-10 renal = tested on: TK-10 renal
U251 CNS = tested on: U251 CNS
UACC-257 melanoma = tested on: UACC-257 melanoma
UACC-62 melanoma = tested on: UACC-62 melanoma
UO-31 renal = tested on: UO-31 renal
DMS 273 small cell lung = tested on: DMS 273 small cell lung
HCC-2998 colon = tested on: HCC-2998 colon
K-562 leukemia = tested on: K-562 leukemia
SK-MEL-2 melanoma = tested on: SK-MEL-2 melanoma
XF 498 CNS = tested on: XF 498 CNS

O=C(COc1ccc(/C=C/C(=O)c2ccc(Cl)cc2)cc1)Nc1c(Cl)cccc1Cl
TGI (786-0 renal): > 100 µM | TGI (A498 renal): > 100 µM | TGI (A549 NSCLC): > 100 µM | TGI (ACHN renal): > 100 µM | TGI (CAKI-1 renal): > 100 µM | TGI (CCRF-CEM leukemia): > 100 µM | TGI (COLO 205 colon): > 100 µM | TGI (DLD-1 colon): > 100 µM | TGI (DMS 114 small cell lung): > 100 µM | TGI (EKVX NSCLC): > 100 µM | TGI (HCT-116 colon): > 100 µM | TGI (HCT-15 colon): > 100 µM | TGI (HL-60(TB) leukemia): > 100 µM | TGI (HOP-18 NSCLC): > 100 µM | TGI (HOP-62 NSCLC): > 100 µM | TGI (HOP-92 NSCLC): > 100 µM | TGI (HT29 colon): > 100 µM | TGI (IGROV1 ovarian): > 100 µM | TGI (KM12 colon): > 100 µM | TGI (KM20L2 colon): > 100 µM | TGI (LOX IMVI melanoma): > 100 µM | TGI (LXFL 529 NSCLC): > 100 µM | TGI (M14 melanoma): > 100 µM | TGI (M19-MEL melanoma): > 100 µM | TGI (MALME-3M melanoma): > 100 µM | TGI (MOLT-4 leukemia): > 100 µM | TGI (NCI-H226 lung): > 100 µM | TGI (NCI-H23 lung): > 100 µM | TGI (NCI-H460 lung): > 100 µM | TGI (NCI-H522 lung): > 100 µM | TGI (OVCAR-3 ovarian): > 100 µM | TGI (OVCAR-4 ovarian): > 100 µM | TGI (OVCAR-5 ovarian): > 100 µM | TGI (OVCAR-8 ovarian): > 100 µM | TGI (RPMI-8226 leukemia): > 100 µM | TGI (RXF 393 renal): > 100 µM | TGI (RXF-631 renal): > 100 µM | TGI (SF-268 CNS): > 100 µM | TGI (SF-295 CNS): > 100 µM | TGI (SF-539 CNS): > 100 µM | TGI (SK-MEL-28 melanoma): > 100 µM | TGI (SK-MEL-5 melanoma): > 100 µM | TGI (SK-OV-3 ovarian): > 100 µM | TGI (SN12C renal): > 100 µM | TGI (SNB-19 CNS): > 100 µM | TGI (SNB-75 CNS): > 100 µM | TGI (SNB-78 CNS): > 100 µM | TGI (SR leukemia): > 100 µM | TGI (SW-620 colon): > 100 µM | TGI (TK-10 renal): > 100 µM | TGI (U251 CNS): > 100 µM | TGI (UACC-257 melanoma): > 100 µM | TGI (UACC-62 melanoma): > 100 µM | TGI (UO-31 renal): > 100 µM

CCCc1onc(CCC(=O)N(Cc2ccccc2)Cc2ccccc2)c1CC
TGI (786-0 renal): > 100 µM | TGI (A498 renal): > 100 µM | TGI (ACHN renal): > 100 µM | TGI (CAKI-1 renal): > 100 µM | TGI (CCRF-CEM leukemia): > 100 µM | TGI (COLO 205 colon): > 100 µM | TGI (DLD-1 colon): > 100 µM | TGI (DMS 114 small cell lung): > 100 µM | TGI (DMS 273 small cell lung): > 100 µM | TGI (HCC-2998 colon): > 100 µM | TGI (HCT-15 colon): > 100 µM | TGI (HL-60(TB) leukemia): > 100 µM | TGI (HOP-62 NSCLC): > 100 µM | TGI (HOP-92 NSCLC): > 100 µM | TGI (HT29 colon): > 100 µM | TGI (IGROV1 ovarian): > 100 µM | TGI (K-562 leukemia): > 100 µM | TGI (KM12 colon): > 100 µM | TGI (KM20L2 colon): > 100 µM | TGI (LOX IMVI melanoma): > 100 µM | TGI (LXFL 529 NSCLC): > 100 µM | TGI (M14 melanoma): > 100 µM | TGI (M19-MEL melanoma): > 100 µM | TGI (MALME-3M melanoma): > 100 µM | TGI (MOLT-4 leukemia): > 100 µM | TGI (NCI-H23 lung): > 100 µM | TGI (NCI-H460 lung): > 100 µM | TGI (NCI-H522 lung): > 100 µM | TGI (OVCAR-3 ovarian): > 100 µM | TGI (OVCAR-4 ovarian): > 100 µM | TGI (OVCAR-5 ovarian): > 100 µM | TGI (RPMI-8226 leukemia): > 100 µM | TGI (RXF-631 renal): > 100 µM | TGI (SF-268 CNS): > 100 µM | TGI (SF-295 CNS): > 100 µM | TGI (SK-MEL-2 melanoma): > 100 µM | TGI (SK-OV-3 ovarian): > 100 µM | TGI (SN12C renal): > 100 µM | TGI (SNB-78 CNS): > 100 µM | TGI (U251 CNS): > 100 µM | TGI (UACC-257 melanoma): > 100 µM | TGI (UACC-62 melanoma): > 100 µM | TGI (XF 498 CNS): > 100 µM

COc1ccc2cc1Oc1ccc(cc1)CC1c3cc4c(cc3CCN1C)Oc1c(OC)cc3c(c1O4)C(C2)N(C)CC3 (centres undefined)
TGI (786-0 renal): 23 µM | TGI (A549 NSCLC): 21.4 µM | TGI (ACHN renal): 17.9 µM | TGI (CCRF-CEM leukemia): 6.69 µM | TGI (COLO 205 colon): 2.83 µM | TGI (DLD-1 colon): 9.62 µM | TGI (DMS 273 small cell lung): 3.02 µM | TGI (EKVX NSCLC): 24.2 µM | TGI (HCC-2998 colon): 9.86 µM | TGI (HCT-116 colon): 3.21 µM | TGI (HCT-15 colon): 5.82 µM | TGI (HL-60(TB) leukemia): 4.25 µM | TGI (HOP-62 NSCLC): 28 µM | TGI (HT29 colon): 4.77 µM | TGI (K-562 leukemia): 6.02 µM | TGI (KM12 colon): 4.57 µM | TGI (KM20L2 colon): 9.25 µM | TGI (LOX IMVI melanoma): 2.81 µM | TGI (LXFL 529 NSCLC): 11 µM | TGI (M14 melanoma): 3 µM | TGI (M19-MEL melanoma): 14.3 µM | TGI (MOLT-4 leukemia): 4.73 µM | TGI (NCI-H226 lung): 10.7 µM | TGI (NCI-H23 lung): 18.2 µM | TGI (NCI-H460 lung): 3.6 µM | TGI (NCI-H522 lung): 4.67 µM | TGI (OVCAR-3 ovarian): 19.5 µM | TGI (OVCAR-4 ovarian): 3.03 µM | TGI (OVCAR-5 ovarian): 26.5 µM | TGI (OVCAR-8 ovarian): 5.45 µM | TGI (RXF 393 renal): 7.93 µM | TGI (RXF-631 renal): 31.1 µM | TGI (SF-268 CNS): 13.1 µM | TGI (SF-295 CNS): 3.81 µM | TGI (SF-539 CNS): 3.9 µM | TGI (SK-MEL-2 melanoma): 6.53 µM | TGI (SK-MEL-28 melanoma): 2.91 µM | TGI (SK-MEL-5 melanoma): 21.1 µM | TGI (SN12C renal): 3.62 µM | TGI (SNB-19 CNS): 13.5 µM | TGI (SNB-78 CNS): 48 µM | TGI (SR leukemia): 4.68 µM | TGI (SW-620 colon): 3.79 µM | TGI (TK-10 renal): 31.3 µM | TGI (U251 CNS): 4.47 µM | TGI (UACC-62 melanoma): 10.5 µM | TGI (XF 498 CNS): 3.41 µM
